{"source": "ChEMBL document CHEMBL1201862", "about": "“PubChem BioAssay data set” (2004)", "key": {"[1]": {"assay": "HIV-1 Env-mediated cell fusion inhibitors, dose response, CCR5-tropic Env (AID 2279)", "type": "functional"}, "[2]": {"assay": "Cytotoxicity screening for potential Inhibitors of Bacterial Capsule Biogenesis. [Related pubchem assays (depositor defined):AID488970]", "type": "functional"}, "[3]": {"tested_on": "Streptococcus sp. 'group A'", "assay": "growth inhibition of control SK(-) GAS strain, dose response, counter-screen for streptokinase expression inhibitor project, luminescence, kanamycin, BacTiterGlo, confirmation (AID 1900)", "type": "functional, organism-based"}, "[4]": {"biological_target": "T1, Small ubiquitin-related modifier 1 (Homo sapiens, UniProt P63165)", "T1 sequence (P63165 whole entry)": "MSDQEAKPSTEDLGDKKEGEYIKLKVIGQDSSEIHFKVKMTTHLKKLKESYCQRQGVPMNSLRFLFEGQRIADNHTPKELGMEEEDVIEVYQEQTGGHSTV", "assay": "inhibitors of SUMO1 peptide binding, dose response, biochemical, fluorescence polarization, uHTS hits (AID 624382)", "type": "functional", "details": "read-out: IC50_Mean"}, "Streptococcus": {"tested_on": "Streptococcus", "assay": "Group A Streptococcus viability loss, dose response, counter-screen for streptokinase expression inhibitor project, luminescence, BacTiterGlo (AID 1915);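 further: potency for reduction of bacterial viability or growth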", "type": "functional, organism-based"}, "[5]": {"biological_target": "T2, Small ubiquitin-related modifier 2 (Homo sapiens, UniProt P61956)", "T2 sequence (P61956 whole entry)": "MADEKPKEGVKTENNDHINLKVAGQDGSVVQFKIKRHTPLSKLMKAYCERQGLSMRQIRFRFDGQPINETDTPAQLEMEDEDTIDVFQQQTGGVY", "assay": "inhibitors of SUMO2 protein-protein interaction, dose response, selectivity assay for SUMO1 interaction inhibitor project, biochemical, FRET, human SUMO2, uHTS hits (AID 624384)", "type": "functional", "details": "read-out: IC50_Mean"}, "[6]": {"biological_target": "T2, Small ubiquitin-related modifier 2", "assay": "SUMO2–SIM peptide binding inhibitors, dose response, selectivity assay for SUMO1 interaction inhibitor project, biochemical, fluorescence polarization, uHTS hits (AID 624385)", "type": "functional", "details": "read-out: IC50_Mean"}, "[7]": {"biological_target": "T1, Small ubiquitin-related modifier 1", "assay": "inhibitors of SUMO1 partner interactions, dose response, biochemical, FRET (AID 624383)", "type": "functional", "details": "read-out: IC50_Mean"}, "Protein Rev": {"biological_target": "Protein Rev (Human immunodeficiency virus type 1 group M subtype B (isolate HXB2)(HIV-1), UniProt P04618)", "sequence (P04618 whole entry)": "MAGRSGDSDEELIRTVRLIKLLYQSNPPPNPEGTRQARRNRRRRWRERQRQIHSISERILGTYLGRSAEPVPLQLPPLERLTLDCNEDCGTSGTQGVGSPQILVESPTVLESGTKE", "assay": "inhibitors of Rev binding to RRE RNA, dose response, biochemical, fluorescence polarization, HIV-1 (AID 434976)", "set-up": "species or system Human immunodeficiency virus 1"}, "[8]": {"biological_target": "T3, Zinc finger protein mex-5 (Caenorhabditis elegans, UniProt Q9XUB2)", "T3 sequence (Q9XUB2 whole entry)": "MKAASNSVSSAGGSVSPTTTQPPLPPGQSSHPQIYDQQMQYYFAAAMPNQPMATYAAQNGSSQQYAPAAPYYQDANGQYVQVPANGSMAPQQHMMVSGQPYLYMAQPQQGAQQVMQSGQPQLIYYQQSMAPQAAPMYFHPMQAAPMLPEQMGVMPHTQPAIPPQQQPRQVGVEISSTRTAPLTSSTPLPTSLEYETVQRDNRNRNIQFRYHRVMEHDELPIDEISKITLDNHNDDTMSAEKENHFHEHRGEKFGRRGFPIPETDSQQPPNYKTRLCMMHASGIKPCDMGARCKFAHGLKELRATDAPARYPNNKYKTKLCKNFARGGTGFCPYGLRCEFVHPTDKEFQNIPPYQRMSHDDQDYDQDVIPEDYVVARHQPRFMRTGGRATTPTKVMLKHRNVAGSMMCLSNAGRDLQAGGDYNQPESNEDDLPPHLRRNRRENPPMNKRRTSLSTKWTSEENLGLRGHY", "assay": "MEX-5/TCR-2 RNA interaction inhibitors, dose response, biochemical, C. elegans, fluorescence polarization (AID 1960)"}, "[9]": {"biological_target": "T4, RNA-binding protein pos-1 (Caenorhabditis elegans, UniProt G5EF15)", "T4 sequence (G5EF15 whole entry)": "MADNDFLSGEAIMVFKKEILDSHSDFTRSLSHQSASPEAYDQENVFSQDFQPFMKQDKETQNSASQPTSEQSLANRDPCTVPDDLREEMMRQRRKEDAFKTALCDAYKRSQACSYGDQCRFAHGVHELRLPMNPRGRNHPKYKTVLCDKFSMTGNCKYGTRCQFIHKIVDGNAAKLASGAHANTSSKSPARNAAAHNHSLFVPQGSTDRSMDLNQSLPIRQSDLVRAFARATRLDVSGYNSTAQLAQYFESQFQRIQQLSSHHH", "assay": "inhibitors of POS-1/mex-3 RNA binding, dose response, biochemical, fluorescence polarization (AID 1964);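 further: purified POS-1 fused to maltose binding protein made in E. coli; potency of compounds blocking POS-1 binding to fluorescent RNA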"}, "[10]": {"biological_target": "Female germline-specific tumor suppressor gld-1 (Caenorhabditis elegans, UniProt Q17339)", "sequence (Q17339 whole entry)": "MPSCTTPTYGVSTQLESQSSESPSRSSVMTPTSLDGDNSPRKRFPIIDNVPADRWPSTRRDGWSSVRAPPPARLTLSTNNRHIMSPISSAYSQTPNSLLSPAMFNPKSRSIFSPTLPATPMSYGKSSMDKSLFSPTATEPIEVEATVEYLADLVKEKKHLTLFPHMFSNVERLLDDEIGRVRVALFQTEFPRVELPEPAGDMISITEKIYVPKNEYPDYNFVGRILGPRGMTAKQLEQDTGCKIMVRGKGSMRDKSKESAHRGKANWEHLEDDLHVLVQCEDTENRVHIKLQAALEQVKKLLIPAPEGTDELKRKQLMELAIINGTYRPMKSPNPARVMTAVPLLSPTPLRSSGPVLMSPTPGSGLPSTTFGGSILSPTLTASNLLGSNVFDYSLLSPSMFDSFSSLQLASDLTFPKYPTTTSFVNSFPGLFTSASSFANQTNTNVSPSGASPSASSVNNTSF", "assay": "inhibitors of GLD-1 binding to TGE RNA, dose response, biochemical, fluorescence polarization, C. elegans (AID 2802);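 further: fluorescence polarization of labeled TGE RNA bound by purified gld-1 protein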"}, "Staphylococcus aureus": {"tested_on": "Staphylococcus aureus", "assay": "Inhibitors of Bacterial Quorum Sensing Structure Activity Relationship (SAR) Analysis: Dose Response Assay. [Related pubchem assays: 700, 527 ]", "type": "functional, organism-based"}, "Bcl-2-like protein 10": {"biological_target": "Bcl-2-like protein 10 (Homo sapiens, UniProt Q9HD36)", "sequence (Q9HD36 whole entry)": "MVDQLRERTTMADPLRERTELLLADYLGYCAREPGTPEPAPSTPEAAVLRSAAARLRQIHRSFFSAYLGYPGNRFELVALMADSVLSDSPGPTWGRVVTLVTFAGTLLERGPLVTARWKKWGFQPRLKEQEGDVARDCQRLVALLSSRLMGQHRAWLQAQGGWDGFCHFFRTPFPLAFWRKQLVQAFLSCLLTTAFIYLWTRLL", "assay": "displacers of TR3 peptide from Bcl-B, primary screen, selectivity assay for Bfl-1 inhibitor project, biochemical, fluorescence polarization, FITC-TR3 peptide (AID 748);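 further: fluorescence polarization from a fluorescein-labelled TR3 peptide binding purified Bcl-B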"}, "Estrogen receptor beta": {"biological_target": "Estrogen receptor beta (Homo sapiens, UniProt Q92731)", "sequence (Q92731 whole entry)": "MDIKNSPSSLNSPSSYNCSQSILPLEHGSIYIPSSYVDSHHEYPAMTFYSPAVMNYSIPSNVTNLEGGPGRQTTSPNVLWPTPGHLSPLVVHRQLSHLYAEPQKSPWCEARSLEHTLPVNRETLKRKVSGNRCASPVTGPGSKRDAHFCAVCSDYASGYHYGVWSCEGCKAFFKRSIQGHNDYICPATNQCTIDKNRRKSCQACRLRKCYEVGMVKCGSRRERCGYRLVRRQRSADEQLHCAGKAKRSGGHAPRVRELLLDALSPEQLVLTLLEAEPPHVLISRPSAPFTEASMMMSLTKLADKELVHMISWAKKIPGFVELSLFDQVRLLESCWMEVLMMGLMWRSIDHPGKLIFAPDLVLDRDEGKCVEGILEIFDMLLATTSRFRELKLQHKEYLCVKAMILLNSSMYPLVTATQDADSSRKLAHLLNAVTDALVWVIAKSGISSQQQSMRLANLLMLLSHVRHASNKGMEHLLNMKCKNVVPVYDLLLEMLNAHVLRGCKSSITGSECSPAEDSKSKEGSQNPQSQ", "assay": "ERβ–SRC-3 coactivator interaction inhibitors, confirmation, orthogonal assay, biochemical, ELISA, streptavidin-HRP readout (AID 1060)"}}, "note": "The source made the active and inactive calls.", "data": [{"smiles": "O=C(COc1ccc(Cl)cc1Cl)Nc1ccc(C(=O)Nc2ccccc2C(=O)O)cc1", "values": [{"measurement": "IC50", "setting": "[1]", "value": "> 50 µM (active)"}, {"measurement": "CC50", "setting": "[2]", "value": "45.3 µM (active)"}, {"measurement": "EC50", "setting": "[3]", "value": "3.72 µM (active)"}, {"measurement": "IC50", "setting": "[4]", "value": "2.7 µM (active)"}, {"measurement": "EC50", "setting": "Streptococcus", "value": "> 150 µM (not active)"}, {"measurement": "IC50", "setting": "[5]", "value": "48.1 µM (inactive)"}, {"measurement": "IC50", "setting": "[6]", "value": "13.3 µM (active)"}, {"measurement": "IC50", "setting": "[7]", "value": "11.3 µM (active)"}]}, {"smiles": "CCCn1c(N)c(N(CCOC)C(=O)Cc2ccc(S(=O)(=O)N3CCOCC3)s2)c(=O)[nH]c1=O", "values": [{"measurement": "IC50", "setting": "Protein Rev", "value": "39.6 µM (not active)"}, {"measurement": "EC50", "setting": "[8]", "value": "> 300 µM (not active)"}, {"measurement": "EC50", "setting": "[9]", "value": "> 300 µM (not active)"}, {"measurement": "IC50", "setting": "[10]", "value": "16.2 µM (inactive)"}]}, {"smiles": "N#Cc1c(NC(=O)CN2C(=O)c3ccccc3C2=O)oc(-c2ccccc2)c1-c1ccccc1", "values": [{"measurement": "IC50", "setting": "Staphylococcus aureus", "value": "1.99 µM (active)"}]}, {"smiles": "Cc1cc(C)n2nc(C(=O)OCC(=O)c3cc(C)n(C)c3C)nc2n1", "values": [{"measurement": "IC50", "setting": "Bcl-2-like protein 10", "value": "24.4 µM (active)"}, {"measurement": "IC50", "setting": "Estrogen receptor beta", "value": "> 50 µM (not active)"}]}]}
